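Each compound was tested at five concentrations against cells in 96-well plates for 48 hours. GI50 marks 50% less growth. The concentration for full growth arrest is given as TGI.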
Tested on: MDA-MB-468 breast
Experiment: growth of human tumour cells (NCI), 48 h

Structure (SMILES)	GI50 [nM]	TGI [nM]
O=c1c2cc(F)ccc2sc2c(NCCCNCCO)nc3ccccc3c12	1090	2430
CN1CCN(CCCCCN=c2cc3c(=O)n(CCCCCN4CCN(C)CC4)c(=O)c4c(NCCCCCN5CCN(C)CC5)cc5c(O)n(CCCCCN6CCN(C)CC6)c(=O)c2c5c4-3)CC1	2260	6310
CCOC(=O)c1c(NC(=O)c2cccc(C(F)(F)F)c2)sc2c3c(ccc12)OCN(C)C3	1520	2970
Cc1ccncc1C(N)=O	> 100000	> 100000
Nc1n[nH]c2ccc([C@@H]3Nc4cc5c(cc4[C@H]4C6CCC(C6)[C@@H]34)C(=O)NC5)cc12 (stereo not given in full)	323	> 100000
COc1ccc(Nc2ccc([N+](=O)[O-])cc2[N+](=O)[O-])cc1CN(CCCl)CCCl	1990	5090
COc1cc(C(=O)c2cc(C)c3[nH]c4ccc(O)cc4c3c2C)cc(OC)c1OC	< 15.7	1060
N#CCCNc1nonc1-c1nc2ccccc2n1CC(=O)c1ccc(NC(=O)[C@@H](N)CCCCN)cc1	23.6	–
COc1cc(-c2nn(-c3cccc(NC(=O)CCN4CCN(Cc5ccccc5)CC4)c3)cc2-c2ccncc2)ccc1Cl	433	16200
FC(F)(F)c1cccc(-c2nn3ncccc3c2-c2ccnc(Nc3ccc4c(c3)OCCO4)n2)c1	3970	17900
COc1ccc2c(c1)C(=O)c1c-2c(OCCN(C)C)nc2ccccc12	2760	11300
Cc1[nH]c(-c2cc(N)ccc2Cl)c2c1C(=O)CCCC2	1900	9460
CC1C=CC(OC(=O)C(C)(O)CCC(O)(C(=O)OC2CC(O)C(C(C)C)CC2(C)O)C(C)C)(C(C)C)CC1 (stereo not given)	360	1220
CN1CCc2nc3sc(C(N)=O)c(N)c3c(-c3cccs3)c2C1	1750	4860
N/C(=N\OC(=O)c1ccccc1)C(Cc1ccccc1)C(=O)NOC(=O)c1ccccc1 (stereo not given)	4100	17500
COc1cc(/C=C/c2ccc3c(Br)cc(Br)c(O)c3n2)ccc1O	1380	5290
C=CCc1cc(Nc2c3ccc(Cl)cc3nc3ccc(OC)cc23)cc(CN(CC)CC)c1O	546	3240
COc1cc(C(=O)Nc2cc(O)c(CC=C(C)C)c(O)c2)cc2c1O[C@]1(C)CC[C@@H](O)C(C)(C)[C@H]1C2	648	32900
C[C@@H]1Cc2cc(O)ccc2[C@H]2CC[C@]3(C)/C(=C/COCCN(C)C)CC[C@H]3[C@H]12 (tested in a mixture with another compound)	1070	3200
CC(C)C[C@H](NC(=O)CCn1ccc2ccccc2c1=O)B(O)O	1380	7080
COc1cccc(Oc2ccccc2NC(=O)CNC(=O)c2cccc3ccccc23)c1	331	> 25000
O=C(Nc1ccccc1OC(=O)c1ccccc1)c1ccccc1	5640	> 100000
COc1ccc2c(-c3ccnc(Nc4cccc(OC(F)(F)F)c4)n3)cnn2n1	1260	4690
O=Nc1c(-c2c(O)[nH]c3ncccc23)[nH]c2ccccc12	4120	> 100000
Oc1c(-c2cc(C(F)(F)F)[nH]n2)cc(Cl)c(OCc2ccc(Cl)cc2)c1-c1ccc(Cl)c(C(F)(F)F)c1	208	1660
CCc1c(C)nc2sc3c(N)ncnc3c2c1C	> 25000	> 25000
COc1ccc(Nc2ccnc(N3CCN(c4ccnc5cc(Cl)ccc45)CC3)n2)cc1	1500	> 100000
CC1c2ccccc2CCN1c1ccc(CO)c(Cl)c1 (stereo not given)	15.1	39.3

Reference: PubChem BioAssay (NCI)
